Results from article PMC8968713, “Displacement of Native FXYD Protein From Na^+/K^+-ATPase With Novel FXYD Peptide Derivatives: Effects on Doxorubicin Cytotoxicity” (Frontiers in Oncology, 2022).
Read-outs that look alike come from different tables or passages of the source.

Assays:
[1] = tested on: MCF-7 cells; experiment: XTT cell viability, MCF-7 cells; assay type: cell-based, human; conditions: for IC50: Homo sapiens, MCF7, 48 h, 48 h, XTT, 5 experiments
Description: (§1) Human pancreatic cancer cells BxPC-3, Panc-1, non-transformed human mammary epithelial MCF-10A cells, and human breast cancer cells MCF-7 and MDA-MB-468 were obtained from the American Type Culture Collection (ATCC, Manassas, VA, USA). The cells were then cultured as previously described ([6], [9], [11]). All cells were used within 20 passages of thawing and were free of mycoplasma contamination as ascertained by mycoplasma PCR detection ([12]).
(§2) Cell metabolic activity was assayed as described ([14]) by estimating the reduction of XTT (2,3-bis(2-methoxy-4-nitro-5-sulfophenyl)-2H-tetrazolium-5-carboxyanilide), using a commercially available kit (Cell Signaling Technology, Danvers, MA, USA) according to the manufacturer’s instructions. Metabolic activity was used as a surrogate for viability. For each set of experimental groups, we performed 5 experiments with 4 replicates. Caspase-3-like activity is increased through a protease cascade during the early stage of apoptosis ([15]), and we measured activities of Caspase 3/7 (DEVDase) using the caspase fluorogenic substrate (Calbiochem, San Diego, CA, USA) as described ([9]).
(§3) Results are presented as mean ± standard deviation (SD). The IC50 values for Dox in cell viability studies were calculated by GraphPad Prism. Statistical comparisons were made with a Mann–Whitney test, ANOVA, and repeated-measure ANOVA with Geisser–Greenhouse epsilon correction. p < 0.05 was considered statistically significant.
(§4) We examined if displacement of WT FXYD3 from Na^+/K^+-ATPase is reflected in viability of cells exposed to FXYD3-pep SKSK with and without co-exposure to Dox for 48 h. The culture medium that contained FXYD3-pep SKSK and Dox was replaced with fresh medium every 24 h.

[2] = tested on: BxPC-3 cells; experiment: XTT cell viability, BxPC-3 cells; assay type: cell-based; conditions: Homo sapiens, BXPC-3, 48 h, 5 experiments
Description: as §1, §2, §3, §4

SMILES: C[C@@H]1O[C@@H](O[C@H]2C[C@@H](O)[C@]3(CO)[C@H]4[C@H](O)C[C@]5(C)[C@@H](C6=CC(=O)OC6)CC[C@]5(O)[C@@H]4CC[C@]3(O)C2)[C@H](O)[C@H](O)[C@H]1O [ouabain]
- Effect of ouabain on Dox-induced cytotoxicity ([1]; 48-h co-exposure with 1 μM Dox, N = 5): modest augmentation of Dox-induced cytotoxicity decreased with an increase in ouabain concentration
- Effect of ouabain alone on cell viability ([1]; 48-h exposure, ouabain 25-150 nM, N = 5): reduced cell viability in a concentration-dependent manner

SMILES: COc1cccc2c1C(=O)c1c(O)c3c(c(O)c1C2=O)C[C@@](O)(C(=O)CO)C[C@@H]3O[C@H]1C[C@H](N)[C@H](O)[C@H](C)O1 [Dox, doxorubicin]
- IC50 ([2]; Dox alone (no peptide)): ~1740 nM
- IC50 ([2]; co-exposure to 1 μM FXYD3-pep SKSK, read-out: IC50 for Dox, cell viability): ~400 nM
- IC50 ([2]; co-exposure to 2 μM FXYD3-pep SKSK, read-out: IC50 for Dox, cell viability): ~300 nM
- IC50 ([1]; Dox alone (no peptide)): ~4300 nM
- IC50 ([1]; co-exposure to 2 µM FXYD3-pep SKSK, read-out: IC50 for Dox, cell viability): ~500 nM
